Assay results: ChEMBL document CHEMBL1150126, “Oxidation products of abietic acid and its methyl ester” (J Nat Prod, 2002)
In brackets after ≈: the same amount, converted by molar mass.

The compounds below were run on KB (assay: Cytotoxicity against human KB cells). Settings: Homo sapiens, KB; read-out: IC50; call rule not given here.
Type: functional, cell-based

Structure (SMILES) | IC50 [µg/mL]
COC(=O)[C@]1(C)CCC[C@]2(C)c3ccc(C(C)C)cc3[C@H](O)C[C@@H]12 | 5.8 (≈ 17.6 µM)
COC(=O)[C@]1(C)CCC[C@@]2(C)[C@H]1CC=C1C=C(C(C)C)C(=O)C[C@@H]12 | 12.5 (≈ 37.8 µM)
COC(=O)[C@]1(C)CCC[C@]2(C)c3ccc(C(C)C)cc3C(=O)C[C@@H]12 | 4.5 (≈ 13.7 µM)

Same assay, conditions: kb

Structure (SMILES) | IC50
COC(=O)[C@]1(C)CCC[C@@]2(C)[C@H]1C[C@@H](O)C1=C[C@@](O)(C(C)C)CC[C@@H]12 | Not Active
CCO[C@@]1(C(C)C)C=C2[C@H](O)C[C@@H]3[C@](C)(CCC[C@@]3(C)C(=O)OC)[C@H]2CC1 | Not Active
CC(C)C1=CC2=CC[C@@H]3[C@](C)(CCC[C@@]3(C)C(=O)O)[C@H]2CC1 [ABIETIC ACID] | Not Active
COC(=O)[C@]1(C)CCC[C@@]2(C)[C@H]1CC=C1C=C(C(C)C)CC[C@@H]12 [METHYL ABIETATE] | Not Active
CC(C)C(=O)CC[C@H]1C(C=O)=CC[C@@H]2[C@]1(C)CCC[C@@]2(C)C(=O)O | Not Active
CC(C)(O)c1ccc2c(c1)[C@H](O)C[C@H]1[C@](C)(C(=O)O)CCC[C@]21C | Not Active
